In patent US20160120915A1, “METHODS FOR MANIPULATING IMMUNE RESPONSES BY ALTERING MICROBIOTA” (NEW YORK UNIVERSITY, priority 2013, published 2016):
Counter-ions that a name gives are not always drawn.

Columns and labels:
terminal ileum [1] = assay: PAT: ileal expression by qPCR in 6-week mice; format: in vivo, C57BL/6 mice; settings: 6-week male mice, 3 pulses, vs control
Protocol: Total RNA was extracted from mouse tissues using the RNeasy Mini Kit (Qiagen), according to the manufacturer's instructions. Total RNA was reverse transcribed to cDNA using the Verso™ cDNA Synthesis Kit (Thermo Scientific). To generate standards for expression analysis of each target gene, the cDNA region of interest was PCR-amplified and the PCR product was cloned into pGEM-T easy (Promega). qPCR was performed with LightCycler 480 SYBR Green I Master mix (Roche) and run in a LightCycler 480 system (Roche). Target mRNA was normalized to GAPDH mRNA as an internal control in each sample.
C57BL/6 mice were fed a standard diet after weaning, and exposed to 3 pulses of therapeutic dose antibiotics (Amoxicillin or Tylosin), or no antibiotics, via their drinking water, all before 6 weeks of age. Mice were sacrificed at 6 weeks of age.
(§1) The distal ileum (1 cm) without Peyer's Patches was collected from each mouse for RNA extraction and kept in RNAlater (Ambion) overnight at 4° C. Samples were stored at −80° C. until RNA extraction was performed.
Panel A: Mice were exposed to 3 pulses of antibiotics (Amoxicillin or Tylosin), or no antibiotics, via breast milk or drinking water at the indicated time points. Panel B: Male mice, including 5 Control, 4 Amoxicillin, and 6 Tylosin, were fed a normal diet. They were sacrificed at 6 weeks of age and the terminal[1 cm] ileum without Peyer's Patches [TI-] was collected.
Ileal expression of T-bet and IFN-γ [Th1], GATA3 and IL-4 [Th2], Foxp3, and TGFβ1 [Treg], and RORγt, IL-17A, and IL-17F [Th17] (Control n=5, Amoxicillin n=4, Tylosin n=6) was quantitated with qPCR and normalized by GAPDH expression. Expression of T-bet and IFNγ [Th1] (p<0.05) and IL-17A and IL-17F [Th17] […] Foxp3 and RORγt were lower in Tylosin than control. This example extends the earlier observation that continuous antibiotics affect ileal immune cell populations and effectors by showing that pulses are sufficient to produce similar effects.

terminal ileum [2] = assay: PAT: ileal gene expression profiling by whole genome microarray, 6-week mice; format: in vivo, C57BL/6 mice; settings: 6-week PAT vs Control, T-test p<0.05 and fold change ≧1.2 or ≦0.8
Protocol: Ileal gene expression profiling of STAT, PAT, and control animal groups, was performed using the Affymetrix Genechip system (Affymetrix). Total RNA quality and quantity were determined using the Agilent 2100 Bioanalyser and Nanodrop ND-1000. Total RNA (100 ng) was used to prepare cDNA following the Affymetrix […] Express Kit labelling protocol (Affymetrix). Standardized array processing procedures recommended by Affymetrix were performed, including hybridization, fluidics processing and scanning of the Affymetrix MG-430 2.0 arrays. GeneSpring GX11 software (Agilent Technologies) was used to normalize the raw data (Affymetrix CEL files) by Robust Multichip Average algorithm (RMA).
1127 and 3065 reproducibly regulated genes were identified from ˜45,000 genes of the mouse genome by T-test (p<0.05) and fold change (≧1.2 or ≦0.8) in 6-week PAT (Panel A; Control vs Amoxicillin and Panel B; Control vs Tylosin), respectively (FIG. 22). DAVID analysis was performed using the regulated genes, and Gene Set Enrichment analysis (GSEA) was performed using whole gene data.
(C, n=3), amoxicillin (A, n=3), and tylosin treated mice (T, n=3).

[3] = system: SAA genes in terminal ileum; assay: NOD: SAA 1, 2, 3 gene expression in terminal ileum by qPCR; format: in vivo; settings: 6-week old NOD male mice, qPCR normalized to 18S rRNA, p<0.05
Protocol: as §1
Total RNA was extracted from mouse tissues using the RNeasy Mini Kit with on-column DNase treatment to remove contaminating gDNA (Qiagen), according to the manufacturer's instructions. 1 μg of total RNA was reverse transcribed to cDNA using Super Script II (Applied Biosystems) according to the manufacturer's instructions. To generate standards for expression analysis of each target gene, the cDNA region of interest was PCR-amplified and the product cloned into pGEM-T easy (Promega). qPCR was performed with Power SYBR Green PCR Master mix (Roche) and run in a LightCycler 480 system (Roche). Target mRNA was normalized to 18S rRNA as an internal control in each sample.
RNA was extracted from the terminal ileum of the 6-week old NOD mice. […] RNA was reverse transcribed into cDNA and then qPCR was performed for SAA1, 2, or 3 using an absolute quantitation method. Gene expression data were normalized to 18S rRNA expression. […] The results for this experiment show consistent decreases in expression of the SAA genes in the ileum, detected by two independent methods (microarray and qPCR). […]

ileal tissue structure = assay: Ileal atrophy scoring in H&E stained ileum; format: in vivo, C57BL/6J mice; settings: 4-week old mice, n=5 each, p<0.05 Mann-Whitney U, vs control
Excerpt: Atrophy was scored in hematoxylin and eosin (H&E) stained ileum samples from 4-week old control and STAT mice (n=5 each).
Ileal tissues from 4-week-old control and STAT mice were formalin fixed and paraffin embedded, cut, and stained with hemotoxylin and eosin (H&E). 4 slides were scored for ileal atrophy per mouse and the average score per mouse was averaged.

Row | SMILES | ileal expression of Foxp3 (terminal ileum [1]) | ileal expression of RORγt (terminal ileum [1]) | ileal expression of IFNγ [Th1] (terminal ileum [1]; p<0.05) | ileal expression of IL-17A [Th17] (terminal ileum [1]; p<0.05) | ileal expression of IL-17F [Th17] (terminal ileum [1]; p<0.05) | ileal expression of T-bet [Th1] (terminal ileum [1]; p<0.05) | reproducibly regulated genes out of ~45,000 genes of the mouse genome (terminal ileum [2]) | SAA gene expression (SAA 1, 2, 3) in the terminal ileum [3] | ileal atrophy (ileal tissue structure)
1 | CC[C@H]1OC(=O)C[C@@H](O)[C@H](C)[C@@H](O[C@@H]2O[C@H](C)[C@@H](O[C@H]3C[C@@](C)(O)[C@@H](O)[C@H](C)O3)[C@H](N(C)C)[C@H]2O)[C@@H](CC=O)C[C@@H](C)C(=O)/C=C/C(C)=C/[C@@H]1CO[C@@H]1O[C@H](C)[C@@H](O)[C@@H](OC)[C@H]1OC [Tylosin, Tylosin tartrate] | lower | lower | significantly lower | significantly lower | significantly lower | significantly lower | 3065 | significantly decreases | 
2 | CC1(C)S[C@@H]2[C@H](NC(=O)COc3ccccc3)C(=O)N2[C@H]1C(=O)[O-].[K+] [STAT, penicillin VK] |  |  |  |  |  |  |  |  | significantly more
